# Measured values taken from patent publication US7875607B2, “7,8-bicycloakyl-chroman derivatives” (Ampere Life Sciences, Inc., priority 2004, dated 2011).
# How the values were obtained:
# [1] = biological target: T1, porcine leukocyte 12/15-lipoxygenase (Sus scrofa, UniProt P16469); assay: 12/15-Lipoxygenase enzyme assay; assay type: biochemical; conditions: 70 μM arachidonic acid, pH 7.4; read-out: IC50, inhibition of 12/15-Lipoxygenase
# T1 sequence (P16469 1-663): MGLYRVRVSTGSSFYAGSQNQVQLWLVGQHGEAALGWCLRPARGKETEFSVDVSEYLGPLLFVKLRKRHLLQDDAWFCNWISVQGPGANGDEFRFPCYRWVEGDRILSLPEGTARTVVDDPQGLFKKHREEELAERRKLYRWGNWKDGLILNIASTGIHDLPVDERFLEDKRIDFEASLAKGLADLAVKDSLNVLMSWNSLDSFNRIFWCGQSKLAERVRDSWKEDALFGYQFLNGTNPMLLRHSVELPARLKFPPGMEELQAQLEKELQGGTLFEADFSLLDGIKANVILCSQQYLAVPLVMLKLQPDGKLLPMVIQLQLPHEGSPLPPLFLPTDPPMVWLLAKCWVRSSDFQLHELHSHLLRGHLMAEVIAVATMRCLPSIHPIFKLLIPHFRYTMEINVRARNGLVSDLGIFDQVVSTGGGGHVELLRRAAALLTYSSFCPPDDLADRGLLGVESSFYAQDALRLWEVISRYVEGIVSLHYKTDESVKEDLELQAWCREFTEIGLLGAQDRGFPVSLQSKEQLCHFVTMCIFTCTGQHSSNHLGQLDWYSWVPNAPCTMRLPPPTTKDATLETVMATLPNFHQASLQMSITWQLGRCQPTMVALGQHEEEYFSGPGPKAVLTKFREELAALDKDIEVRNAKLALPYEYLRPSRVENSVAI
# Description: This procedure was used for measuring the enzymatic activity of porcine leukocyte 12/15-lipoxygenase using a calorimetric method based on the ferric oxidation of xylenol orange.
# Porcine Leukocyte 12/15-lipoxygenase (Cayman Cat # 60300) was used in this assay. Test compound and/or vehicle was added to 1.3U 12/15-lipoxygenase in 50 mM Tris-HCl buffer, pH 7.4. The reaction was initiated by addition of 70 μM arachidonic acid in Tris-HCl buffer, pH 7.4, and terminated after a 10 minute incubation at room temperature by addition of FOX reagent (25 mM sulphuric acid, 100 μM xylenol orange, 100 μM iron (II) sulphate, methanol:water 9:1). The yellow color of acidified xylenol orange was converted to a blue color by the lipid hydroperoxide-mediated oxidation of Fe^2+ ions and the interaction of the resulting Fe^3+ ions with the dye. The complex was allowed to form during a 1 hour incubation at room temperature with shaking. Absorbance of the Fe^3+ complex was then measured at […] using a spectrophotometer.
# Negative controls contained enzyme during the incubation step but substrate was not added until after the FOX reagent.
# Compounds are screened at 5 concentrations in triplicate starting at 10 μM
# [2] = test system: LTB4 production in heparinized whole blood; assay: Inhibition of LTB4 production in blood; assay type: cell-based, rat or mouse; conditions: 20 μM A23187, read-out: EC50, protection against LTB4
# Summary of the method: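 Heparinized rat or mouse whole blood preincubated with test agent 10 min at 37°C, then stimulated with calcium ionophore A23187 (20 μM final) for 30 min. Plasma methanol-precipitated and LTB4 measured by EIA; percent inhibition versus vehicle used to derive IC50.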
# [3] = biological target: T2, human recombinant 5-lipoxygenase (Homo sapiens, UniProt P09917); assay: 5-Lipoxygenase enzyme assay; assay type: biochemical; conditions: 70 μM arachidonic acid, pH 7.4
# T2 construct: purchased Cayman 60402
# T2 sequence (P09917 1-674): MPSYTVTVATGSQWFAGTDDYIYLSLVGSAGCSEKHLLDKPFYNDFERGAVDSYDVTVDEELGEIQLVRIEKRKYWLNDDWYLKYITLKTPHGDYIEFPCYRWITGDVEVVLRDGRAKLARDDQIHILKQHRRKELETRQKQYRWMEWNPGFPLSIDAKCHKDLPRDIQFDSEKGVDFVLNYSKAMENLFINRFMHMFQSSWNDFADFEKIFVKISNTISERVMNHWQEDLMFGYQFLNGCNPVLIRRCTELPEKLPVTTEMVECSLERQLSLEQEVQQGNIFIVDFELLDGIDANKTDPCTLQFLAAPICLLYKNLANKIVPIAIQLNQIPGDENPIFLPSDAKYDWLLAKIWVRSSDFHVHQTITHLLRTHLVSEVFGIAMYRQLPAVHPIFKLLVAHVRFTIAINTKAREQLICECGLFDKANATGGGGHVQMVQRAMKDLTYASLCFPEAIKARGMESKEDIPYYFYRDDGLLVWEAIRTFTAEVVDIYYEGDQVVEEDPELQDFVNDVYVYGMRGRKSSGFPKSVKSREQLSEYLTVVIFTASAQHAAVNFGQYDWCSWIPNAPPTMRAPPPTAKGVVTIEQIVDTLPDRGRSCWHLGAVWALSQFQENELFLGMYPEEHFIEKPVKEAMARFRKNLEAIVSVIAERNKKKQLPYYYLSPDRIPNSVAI
# Summary of the method: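 Human recombinant 5-LO (0.5 U) with compound in 50 mM Tris-HCl pH 7.4 reacted with 70 μM arachidonic acid for 10 min at room temperature. Hydroperoxide formation was read via FOX xylenol orange complex at 620 nm after 1 h; compounds at 5 concentrations from 10 μM, in triplicate.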
SMILES,IC50 [1] [µM],EC50 [2] [µM],IC50 [3] [µM]
"CC1(C)CCc2cc(O)c3c(c2O1)C1CCC3CC1 [2,2-Dimethyl-3,4,7,8,9,10-hexahydro-7,10-ethano-2H-benzo[h]chromen-6-ol]",≤ 10,≤ 10,≤ 5
"CC1(C)C=Cc2cc(O)c3c(c2O1)C1CCC3CC1 [2,2-Dimethyl-7,8,9,10-tetrahydro-7,10-ethano-2H-benzo[h]chromen-6-ol]",≤ 10,–,≤ 5
"CC1(CCCCl)CCc2cc(O)c3c(c2O1)C1CCC3C1 (stereo not drawn) [2-(3-Chloro-propyl)-2-methyl-3,4,7,8,9,10-hexahydro-7,10-methano-2H-benzo[h]chromen-6-ol]",–,≤ 10,≤ 5
"CC(C)CSCCCC1(C)CCc2cc(O)c3c(c2O1)C1CCC3C1 (stereo not drawn) [2-(3-isobutylsulfanyl-propyl)-2-methyl-3,4,7,8,9,10-hexahydro-7,10-methano-2H-benzo[h]chromen-6-ol]",≤ 10,≤ 10,–
"CC1(CCCSc2nccs2)CCc2cc(O)c3c(c2O1)C1CCC3C1 (stereo not drawn) [2-Methyl-2-[3-(thiazol-2-ylsulfanyl)-propyl]-3,4,7,8,9,10-hexahydro-7,10-methano-2H-benzo[h]chromen-6-ol]",≤ 10,≤ 10,≤ 5
